Test results as given in patent US8158667B2, “Topical treatment of cataracts in dogs” (priority 2006, dated 2012).

Key:
aldose reductase = aldose reductase (Homo sapiens, UniProt P15121); details: '704 patent; cited from earlier work
accumulation of sorbitol = details: fold more effective than sorbinil; '704 patent; cited from earlier work
[1] = stability of 2R-MS in carbomer gel emulsion; type: physicochemical; details: room temperature
Protocol: To maximize the topical administration of 2R-MS, vehicles or carriers of different viscosities comprised of polymers, gums, or viscosity enhancers were prepared. Formulations containing 3% of the AR inhibitor 2R-MS were prepared using the five different vehicles, which included 0.5% hydroxypropyl methylcellulose (HPMC); 0.5% xanthan gum; 0.5% gellan gum; 0.25% carbopol; and 0.25% carbopol (0.25% w/v)+0.25% HPMC. All were prepared in modified Sorensen's Phosphate Buffer, pH of 7.4. The drug and each vehicle were suspended directly in a sterile eye drop bottle by vortexing vigorously for at least one minute. […] All suspensions were vortexed prior to topical administration. An additional topical carbomer gel formulation consisting of 2.5% water soluble high molecular weight polymer of acrylic acid cross-linked with a polyether of sucrose was also developed. Carbomers are widely used in products for the treatment of dry eye. Crystalline 2R-MS was ground into a fine powder and mixed into an emulsion according to standard techniques.

[2] = systemic half-life in dogs; details: dog, in vivo
Excerpt: Topical administration of the ARI 2R,4S-6-fluoro-2-methyl-spiro[chroman-4,4′-imidazolidine]-2′,5′-dione (2-MS) is the preferred method for preventing cataracts and ocular complications in diabetic dogs and cats. As a result of the short, 3 hr systemic half-life of 2-MS in dogs and subsequent studies conducted in galactose-fed dogs, it is estimated that, at minimum, a multiple 4-times/day oral dose is required for efficacy. Topical application permits a lower dosage and a lower frequency of administration. Topical application will also minimize the tendency of diabetic dogs to have their liver functions compromised because topical administration will bypass first pass liver metabolism. The topical treatment of the present invention will not only arrest the progression of sugar cataracts, but also reduces the density of early cortical cataracts. […] The topical treatment should also delay the formation of other ocular diabetes associated complications associated with aldose reductase, as summarized above.

Row | SMILES | inhibiting aldose reductase, compared with sorbinil (aldose reductase) | effectiveness in preventing the accumulation of sorbitol relative to sorbinil (accumulation of sorbitol) | stability in the emulsion [1] | half-life [2]
1 | CC1CC2(NC(=O)NC2=O)c2cc(F)ccc2O1 (stereo not shown) [2-methyl sorbinil, 6-fluoro-2-methyl-spiro-[chroman-4,4′-imidazolidine]-2′,5′-dione] | more effective in inhibiting aldose reductase | 2-10 times |  | 
2 | C[C@@H]1C[C@]2(NC(=O)NC2=O)c2cc(F)ccc2O1 [2R-MS, 2R,4S-6-fluoro-2-methyl-spiro[chroman-4,4′-imidazolidine]-2′,5′-dione] |  |  | stable in the emulsion for a minimum of ten months | 3 h
